Patent publication US5968951A, “Benzenesulfonamide derivatives as bradykinin antagonists” (Fournier Industrie et Sante, priority 1995, dated 1999)
Structures can show the parent of a compound that is named as a salt.

Biological target: T1, guinea-pig B2 receptor (Cavia porcellus, UniProt O70526)
T1 construct: Ileum segments are isolated from male guinea-pigs of the Dunkin-Hartley strain; tissue Iffa Credo, l'Arbresle, France (animals); host or cells: ileum membranes of male Dunkin-Hartley guinea-pigs
T1 sequence (O70526 1-372): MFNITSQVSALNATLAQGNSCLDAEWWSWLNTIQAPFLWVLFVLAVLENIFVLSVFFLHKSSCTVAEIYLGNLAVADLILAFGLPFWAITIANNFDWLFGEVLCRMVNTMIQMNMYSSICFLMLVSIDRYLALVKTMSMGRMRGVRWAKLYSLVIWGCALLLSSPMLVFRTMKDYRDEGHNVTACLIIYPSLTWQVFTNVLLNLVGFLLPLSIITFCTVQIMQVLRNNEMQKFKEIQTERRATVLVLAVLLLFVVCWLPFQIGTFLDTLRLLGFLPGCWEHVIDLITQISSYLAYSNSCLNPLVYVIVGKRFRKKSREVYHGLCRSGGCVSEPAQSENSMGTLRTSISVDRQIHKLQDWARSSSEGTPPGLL
Assay: [3H]-bradykinin binding to guinea-pig ileum membranes
Conditions: test compound 10^-6 M; [3H]-bradykinin 120 pM; 50 μg membrane protein; 90 min at 20° C.; read-out: Activity % (percentage inhibition of the binding of [3H]-bradykinin)
Method: We used the following pharmacological test: Ileum segments are isolated from male guinea-pigs of the Dunkin-Hartley strain (Iffa Credo, l'Arbresle, France) and ground in the following TES buffer: TES 25 mM, 1,10-phenanthroline 1 mM (pH 6.8), bacitracin 140 μg/ml, BSA 1 g/l. The membranes are then isolated by centrifugation (18,000 rpm; 20 min; 4° C.). The binding studies are carried out in the TES buffer using [^3 H]-bradykinin (120 pM) and 50 μg of membrane protein per test (final volume 500 μl) with an equilibrium time of 90 min at 20° C.

Row | inhibition at 1 µM | Compound
1 | 100% | CNC(=O)c1cccc(CN(C)S(=O)(=O)c2ccc(Cl)c(COc3cccc4ccc(C)nc34)c2Cl)c1 [Example 11, 2,4-Dichloro-N-methyl-N-[[3-(methylaminocarbonyl)phenyl]methyl]-3-[(2-methylquinolin-8-yl)oxymethyl]benzenesulfonamide]
2 | 97.6% | Cc1ccc2cccc(OCc3c(Cl)ccc(S(=O)(=O)N(C)Cc4c[nH]c5ccccc45)c3Cl)c2n1 [Example 7, 2,4-Dichloro-N-methyl-N-[(indol-3-yl)methyl]-3-[(2-methylquinolin-8yl)oxymethyl]benzenesulfonamide]
3 | 95.7% | Cc1ccc2cccc(OCc3c(Cl)ccc(S(=O)(=O)N(C)CCCCCCCCO)c3Cl)c2n1 [Example 20, 2,4-Dichloro-N-methyl-N-(8-hydroxyoctyl)-3-[(2-methylquinolin-8-yl)oxymethyl]benzenesulfonamide]
4 | 99% | CNC(=O)CCCCCN(C)S(=O)(=O)c1ccc(Cl)c(COc2cccc3ccc(C)nc23)c1Cl [Example 19, 2,4-Dichloro-N-methyl-N-[6-(methylamino)-6-oxohexyl]-3-[(2-methylquinolin-8-yl)oxymethyl]benzenesulfonamide]
5 | 96.9% | Cc1ccc2cccc(OCc3c(Cl)ccc(S(=O)(=O)N(C)Cc4cccc(C(=O)N(C)C)c4)c3Cl)c2n1 [Example 12, 2,4-Dichloro-N-methyl-N-[[3-[(dimethylamino)carbonyl]phenyl]methyl]-3-[(2-methylquinolin-8-yl)oxymethyl]benzenesulfonamide]
6 | 99.5% | Cc1ccc2cccc(OCc3c(Cl)ccc(S(=O)(=O)N(C)Cc4ccc(N)cc4)c3Cl)c2n1 [Example 8, 2,4-Dichloro-N-methyl-N-[(4-aminophenyl)methyl]-3-[(2-methylquinolin-8-yl)oxymethyl]benzenesulfonamide dihydrochloride]
7 | 97.9% | Cc1ccc2cccc(OCc3c(Cl)ccc(S(=O)(=O)N(C)CCc4ccccc4)c3Cl)c2n1 [Example 15, 2,4Dichloro-N-methyl-N-(2-phenylethyl)-3-[(2-methylquinolin-8-yl)oxymethyl]benzenesulfonamide]
8 | 94.3% | Cc1ccc2cccc(OCc3c(Cl)ccc(S(=O)(=O)N(C)CCCCCCCCCCCCO)c3Cl)c2n1 [Example 21, 2,4-Dichloro-N-methyl-N-(12-hydroxydodecyl)-3-[(2-methylquinolin-8-yl)oxymethyl]benzenesulfonamide]
9 | 100% | Cc1ccc2cccc(OCc3c(Cl)ccc(S(=O)(=O)N(C)CCCCCCCN)c3Cl)c2n1 [Example 16, 2,4-Dichloro-N-methyl-N-(7-aminoheptyl)-3-[(2-methylquinolin-8-yl)oxymethyl]benzenesulfonamide bis(trifluoroacetate)]
10 | 92.8% | Cc1ccc2cccc(OCc3c(Cl)ccc(S(=O)(=O)N(CCCCN)C(C)(C)C)c3Cl)c2n1 [Example 23, N-(4-Aminobutyl)-N-(1,1-dimethylethyl)-2,4-dichloro-3-[(2-methylquinolin-8-yl)oxymethyl]benzenesulfonamide]
11 | 95.1% | Cc1ccc2cccc(OCc3c(Cl)ccc(S(=O)(=O)N(CCCCCCCO)Cc4ccccc4)c3Cl)c2n1 [Example 25, 2,4-Dichloro-N-(phenylmethyl)-N-(7-hydroxyheptyl)-3-[(2-methylquinolin-8-yl]oxymethyl]benzenesulfonamide]
12 | 98% | CNC(=O)CCCCCCCN(Cc1ccccc1)S(=O)(=O)c1ccc(Cl)c(COc2cccc3ccc(C)nc23)c1Cl [Example 28, 2,4-Dichloro-N-(phenylmethyl)-N-[8-(methylamino)-8-oxooctyl]-3-[(2-methylquinolin-8-yl)oxymethyl]benzenesulfonamide]
13 | 99.8% | Cc1ccc2cccc(OCc3c(Cl)ccc(S(=O)(=O)N(C)Cc4cccc(C(N)=O)c4)c3Cl)c2n1 [Example 10, 2,4-Dichloro-N-methyl-N-[[3-(aminocarbonyl)phenyl]methyl]-3[(2-methylquinolin-8-yl)oxymethyl]benzenesulfonamide]
14 | 99.5% | Cc1ccc2cccc(OCc3c(Cl)ccc(S(=O)(=O)N(C)Cc4ccc(O)cc4)c3Cl)c2n1 [Example 9, 2,4-Dichloro-N-methyl-N-[(4-hydroxyphenyl)methyl]-3-[(2-methylquinolin-8-yl)oxymethyl]benzenesulfonamide]
15 | 90.5% | CC(=O)NCCCCN(C(C)(C)C)S(=O)(=O)c1ccc(Cl)c(COc2cccc3ccc(C)nc23)c1Cl [Example 24]
16 | 100% | Cc1ccc2cccc(OCc3c(Cl)ccc(S(=O)(=O)N(C)Cc4cccc(C(=O)NCCN(C)C)c4)c3Cl)c2n1 [Example 14, 2,4-Dichloro-N-methyl-N-[[3-[[2-(dimethylamino)ethyl]aminocarbonyl]-phenyl]-methyl]-3-[(2-methylquinolin-8-yl)oxymethyl]benzenesulfonamide]
17 | 99.3% | Cc1ccc2cccc(OCc3c(Cl)ccc(S(=O)(=O)N(C)Cc4cccc(C(=O)NCCCO)c4)c3Cl)c2n1 [Example 13, 2,4-Dichloro-N-methyl-N-[[3-[(3-hydroxypropyl)aminocarbonyl]phenyl]-methyl]-3-[(2-methylquinolin-8-yl)oxymethyl]benzenesulfonamide]
